From patent publication US20250066383A1, “PDE 7 MODULATOR COMPOUNDS” (Omeros Corporation, priority 2023, published 2025)

Experiments:
[1] = biological target: PDE7B (Homo sapiens (Human), UniProt Q9NP56); assay: PDE7B assay: inhibition of PDE7B hydrolysis of [3H]cAMP to [3H]AMP (scintillation proximity, yttrium silicate beads); assay type: biochemical; conditions: 16 nM [3H]cAMP, 30° C., 20 minutes; read-out: PDE 7B IC50
Method: (§1) PDE7A and PDE7B Assay. Compounds were tested for their activity by measuring the inhibition of PDE7A or PDE7B hydrolysis of [3H]cAMP to [3H]AMP. Generally, eight dilutions of compound were assayed in 50 mM Tris-HCl pH 7.5, 8.3 mM MgCl2, 0.5 mg/mL BSA, 1.7 mM EGTA, 16 nM [3H]cAMP, and 1% DMSO. PDE7A or PDE7B (typically 1-5 ng/mL) (BPS BioSciences, CA) is added to initiate the reaction. The reaction was incubated at 30° C. for 20 minutes. PDE7A and PDE7B hydrolysis was terminated by the addition of yttrium silicate beads (GE Healthcare, RPNQ0150) and counted on a Wallac Microbeta scintillation counter, 1-2 hours following the addition of the beads. Data was analyzed using XLfit […] from which ICso values were obtained.

[2] = biological target: PDE7A (Homo sapiens (Human), UniProt Q13946); assay: PDE7A assay: inhibition of PDE7A hydrolysis of [3H]cAMP to [3H]AMP (scintillation proximity, yttrium silicate beads); assay type: biochemical; conditions: 16 nM [3H]cAMP, 30° C., 20 minutes; read-out: PDE 7A IC50
PDE7A, sequence (Q13946 whole entry): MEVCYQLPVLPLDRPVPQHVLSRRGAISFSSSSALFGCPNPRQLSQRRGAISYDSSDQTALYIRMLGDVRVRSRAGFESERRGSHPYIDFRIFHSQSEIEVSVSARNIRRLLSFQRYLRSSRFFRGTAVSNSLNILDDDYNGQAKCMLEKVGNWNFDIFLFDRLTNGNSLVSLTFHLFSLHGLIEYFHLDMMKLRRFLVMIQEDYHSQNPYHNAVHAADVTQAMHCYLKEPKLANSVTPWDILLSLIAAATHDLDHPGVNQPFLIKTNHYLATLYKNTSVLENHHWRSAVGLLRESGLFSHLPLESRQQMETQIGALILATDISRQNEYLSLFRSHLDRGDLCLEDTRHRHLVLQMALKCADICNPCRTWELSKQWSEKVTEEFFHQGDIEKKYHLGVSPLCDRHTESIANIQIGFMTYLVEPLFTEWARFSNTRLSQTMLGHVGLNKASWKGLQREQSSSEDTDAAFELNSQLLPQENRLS
Method: as §1

PDE7B, sequence (Q9NP56 whole entry): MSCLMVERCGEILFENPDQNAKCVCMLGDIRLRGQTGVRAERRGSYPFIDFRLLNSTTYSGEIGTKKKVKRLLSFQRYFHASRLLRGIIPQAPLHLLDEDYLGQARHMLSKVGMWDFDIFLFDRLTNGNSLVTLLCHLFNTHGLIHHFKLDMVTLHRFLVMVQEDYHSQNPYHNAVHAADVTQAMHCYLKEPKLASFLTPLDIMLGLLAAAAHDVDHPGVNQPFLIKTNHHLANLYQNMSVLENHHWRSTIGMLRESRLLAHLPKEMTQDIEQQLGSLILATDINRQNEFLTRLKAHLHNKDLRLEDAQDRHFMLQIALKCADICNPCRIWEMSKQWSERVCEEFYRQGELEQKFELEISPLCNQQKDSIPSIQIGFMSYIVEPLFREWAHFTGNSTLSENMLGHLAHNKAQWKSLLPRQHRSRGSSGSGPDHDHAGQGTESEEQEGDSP

Row | SMILES | IC50 [1] [nM] | IC50 [2] [nM]
1 | Cc1nn(CC(C)(C)C)c2sc(C(=O)Nc3cnc(N4CCOCC4)c(Cl)c3)cc12 [II-38, N-(5-chloro-6-morpholinopyridin-3-yl)-3-methyl-1-neopentyl-1H-thieno [2,3-c]pyrazole-5-carboxamide] | 500 to 2500 | 100 to 500
2 | Cc1nn(CC(C)C)c2sc(C(=O)N[C@H]3CC[C@H](N4CCN(C(=O)N(C)C)CC4)CC3)cc12 [II-19, N-((1r,4r)-4-(4-(dimethylcarbamo-yl)piperazin-1-yl)-cyclohexyl)-1-iso-butyl-3-methyl-1H-thieno[2,3-c]pyrazole-5-carboxamide] | 30 to 100 | 10 to 30
3 | Cc1nn(CC(C)C)c2sc(C(=O)N[C@H]3CC[C@H](N4CCOCC4)CC3)cc12 [II-14] | 30 to 100 | 30 to 100
4 | Cc1nn(-c2ccccc2)c2sc(C(=O)N[C@H]3CC[C@H](N4CCOCC4)CC3)cc12 [Compound I-8, 3-methyl-N-((1r,4r)-4-morpholinocyclohex-yl)-1-phenyl-1H-thieno [2,3-c]pyrazole-5-carboxamide] | 100 to 500 | 100 to 500
5 | Cc1nn(CC(C)C)c2sc(C(=O)N[C@H]3CC[C@H](N4CCN(CC(F)F)CC4)CC3)cc12 [II-8, N-((1r,4r)-4-(4-(2,2-difluoroethyl)piper-azin-1-yl)cyclohexyl)-1-isobutyl-3-methyl-1H-thieno[2,3-c]pyr-azole-5-carboxamide] | 30 to 100 | 30 to 100
6 | Cc1nn(CC2CCC2)c2sc(C(=O)N[C@H]3CC[C@H](N4CC(F)(F)C4)CC3)cc12 [II-22, 1-(cyclobutylmethyl)-N-((1r,4r)-4-(3,3-difluoroazetidin-1-yl)cyclohexyl)-3-methyl-1H-thieno [2,3-c]pyrazole-5-carboxamide] | 30 to 100 | 30 to 100
7 | Cc1nn(CC2CCC2)c2sc(C(=O)N[C@H]3CC[C@H](N4CCN(CC(F)(F)F)CC4)CC3)cc12 [II-21, 1-(cyclobutylmethyl)-3-methyl-N-((1r,4r)-4-(4-(2,2,2-trifluoro-ethyl)piperazin-1-yl)-cyclohexyl)-1H-thieno[2,3-c]pyrazole-5-carboxamide] | 30 to 100 | 10 to 30
8 | Cc1nn(C2CCC(F)(F)CC2)c2sc(C(=O)N[C@H]3C[C@@H](N4CCC(F)(F)C4)C3)cc12 [II-39, 1-(4,4-difluorocyclo-hexyl)-N-((1s,3s)-3-(3,3-difluoropyrrol-idin-1-yl)cyclobutyl)-3-methyl-1H-thieno [2,3-c]pyrazole-5-carboxamide] | 30 to 100 | 30 to 100
9 | Cc1nn(CC(C)(C)C)c2sc(C(=O)N[C@H]3CC[C@H](N4CCN(CC(F)F)CC4)CC3)cc12 [II-28, N-((1r,4r)-4-(4-(2,2-difluoroethyl)piper-azin-1-yl)cyclohex-yl)-3-methyl-1-neo-pentyl-1H-thieno [2,3-c]pyrazole-5-carboxamide] | 10 to 30 | 10 to 30
10 | Cc1nn(CC(C)(C)C)c2sc(C(=O)N[C@H]3C[C@H](N4CCOCC4)C3)cc12 [II-25, 3-methyl-N-((1r,3r)-3-morpholinocyclo-butyl)-1-neopentyl-1H-thieno[2,3-c]pyr-azole-5-carboxamide] | 30 to 100 | 10 to 30
11 | Cc1nn(-c2ccccc2Cl)c2sc(C(=O)N[C@H]3C[C@H](N4CCN(C5CC5)CC4)C3)cc12 [Compound I-6, 1-(2-chlorophenyl)-N-((1r,3r)-3-(4-cyclo-propylpiperazin-1-yl)-cyclobutyl)-3-methyl-1H-thieno[2,3-c]pyr-azole-5-carboxamide] | 30 to 100 | 30 to 100
12 | Cc1nn(CC(C)C)c2sc(C(=O)N[C@H]3CC[C@H](N4CC(F)(F)C4)CC3)cc12 [II-4, N-((1r,4r)-4-(3,3-difluoroazetidin-1-yl)-cyclohexyl)-1-isobut-yl-3-methyl-1H-thieno [2,3-c]pyrazole-5-carboxamide] | 30 to 100 | 10 to 30
13 | Cc1nn(C2C[C@@H](C)O[C@@H](C)C2)c2sc(C(=O)N[C@H]3CC[C@H](N4CCN(C(C)C)CC4)CC3)cc12 (some centres unmarked) [II-1, 1-((2r,6s)-2,6-dimeth-yltetrahydro-2H-pyr-an-4-yl)-N-((1r,4r)-4-(4-isopropylpiperazin-1-yl)cyclohexyl)-3-methyl-1H-thieno [2,3-c]pyrazole-5-carboxamide] | 500 to 2500 | 100 to 500
14 | Cc1nn(CC(C)(C)C)c2sc(C(=O)Nc3ccc(N4CCOCC4)c(C#N)c3)cc12 [II-40, N-(3-cyano-4-mor-pholinophenyl)-3-methyl-1-neopentyl-1H-thieno[2,3-c]pyr-azole-5-carboxamide] | 100 to 500 | 100 to 500
15 | Cc1nn(CC(C)(C)C)c2sc(C(=O)N[C@H]3C[C@H](N4CCN(C5CC5)CC4)C3)cc12 [II-34, N-((1r,3r)-3-(4-cyclo-propylpiperazin-1-yl)cyclobutyl)-3-methyl-1-neopentyl-1H-thieno[2,3-c] pyrazole-5-carbox-amide] | 30 to 100 | 10 to 30

Results, then the compound that gave them:

Row | IC50 [1] [nM] | IC50 [2] [nM] | SMILES
16 | 30 to 100 | 30 to 100 | Cc1nn(CC(C)C)c2sc(C(=O)N[C@H]3CC[C@H](N4CCN(CC(F)(F)F)CC4)CC3)cc12 [II-7, 1-isobutyl-3-methyl-N-((1r,4r)-4-(4-(2,2,2-trifluoroethyl)piper-azin-1-yl)cyclohexyl)-1H-thieno[2,3-c]pyr-azole-5-carboxamide]
17 | 30 to 100 | 10 to 30 | CC(=S)N1CCN([C@H]2CC[C@H](NC(=O)c3cc4c(C)nn(CC(C)C)c4s3)CC2)CC1 [II-23, N-((1r,4r)-4-(4-ethanethioylpiperazin-1-yl)cyclohexyl)-1-isobutyl-3-methyl-1H-thieno[2,3-c]pyrazole-5-carboxamide]
18 | 10 to 30 | 10 to 30 | Cc1nn(C2CCC(F)(F)CC2)c2sc(C(=O)N[C@H]3C[C@H](N4CCC(F)(F)C4)C3)cc12 [II-3, 1-(4,4-difluorocyclo-hexyl)-N-(3-(3,3-difluoropyrrolidin-1-yl)cyclobutyl)-3-methyl-1H-thieno [2,3-c]pyrazole-5-carboxamide]
19 | 10 to 30 | < 10 | COC1CN([C@H]2CC[C@H](NC(=O)c3cc4c(C)nn(CC(C)(C)C)c4s3)CC2)C1 [II-45, N-((1r,4r)-4-(3-methoxyazetidin-1-yl)cyclohexyl)-3-methyl-1-neopentyl-1H-thieno[2,3-c]pyr-azole-5-carboxamide]
20 | 10 to 30 | 10 to 30 | Cc1nn(CC(C)(C)C)c2sc(C(=O)Nc3ccc(N4CCOCC4)nc3)cc12 [II-35, 3-methyl-N-(6-morpholinopyridin-3-yl)-1-neopentyl-1H-thieno[2,3-c]pyr-azole-5-carboxamide]
21 | < 10 | < 10 | Cc1nn(CC(C)(C)C)c2sc(C(=O)N[C@H]3CC[C@H](N4CCN(C5CC5)CC4)CC3)cc12 [II-24, N-((1r,4r)-4-(4-cyclo-propylpiperazin-1-yl)-cyclohexyl)-3-meth-yl-1-neopentyl-1H-thieno[2,3-c]pyrazole-5-carboxamide]
22 | < 10 | < 10 | Cc1nn(C2CCC(F)(F)CC2)c2sc(C(=O)N[C@H]3CC[C@H](N4CCC(F)(F)C4)CC3)cc12 [II-26, 1-(4,4-difluorocyclo-hexyl)-N-((1r,4r)-4-(3,3-difluoropyrrol-idin-1-yl)cyclohexyl)-3-methyl-1H-thieno [2,3-c]pyrazole-5-carboxamide]
23 | < 10 | < 10 | Cc1nn(CC(C)(C)C)c2sc(C(=O)N[C@H]3CC[C@H](N4CC(F)(F)C4)CC3)cc12 [II-30, N-((1r,4r)-4-(3,3-difluoroazetidin-1-yl)cyclohexyl)-3-methyl-1-neopentyl-1H-thieno[2,3-c]pyr-azole-5-carboxamide]
24 | 10 to 30 | 30 to 100 | Cc1nn(CC(C)C)c2sc(C(=O)N[C@H]3CC[C@H](N4CCN(C(C)C)CC4)CC3)cc12 [II-5, 1-isobutyl-N-((1r,4r)-4-(4-isopropylpiper-azin-1-yl)cyclohexyl)-3-methyl-1H-thieno [2,3-c]pyrazole-5-carboxamide]
25 | < 10 | 10 to 30 | Cc1nn(C2CCC(F)(F)CC2)c2sc(C(=O)N[C@H]3CC[C@H](N4CC(OC(F)F)C4)CC3)cc12 [II-41, 1-(4,4-difluorocyclo-hexyl)-N-((1r,4r)-4-(3-(difluorometh-oxy)azetidin-1-yl)-cyclohexyl)-3-methyl-1H-thieno [2,3-c]pyrazole-5-carboxamide]
26 | < 10 | < 10 | Cc1nn(CC(C)(C)C)c2sc(C(=O)N[C@H]3CC[C@H](N4CCC(F)(F)C4)CC3)cc12 [II-27, N-((1r,4r)-4-(3,3-difluoropyrrolidin-1-yl)cyclohexyl)-3-methyl-1-neopentyl-1H-thieno[2,3-c]pyr-azole-5-carboxamide]
27 | < 10 | < 10 | Cc1nn(CC(C)(C)C)c2sc(C(=O)N[C@H]3CC[C@H](N4CC(OC(F)F)C4)CC3)cc12 [II-42, N-((1r,4r)-4-(3-(difluoromethoxy)-azetidin-1-yl)cyclo-hexyl)-3-methyl-1-neopentyl-1H-thieno [2,3-c]pyrazole-5-carboxamide]
28 | < 10 | < 10 | Cc1nn(C2CCC(F)(F)CC2)c2sc(C(=O)N[C@H]3CC[C@H](N4CC(F)(F)C4)CC3)cc12 [II-17, N-((1r,4r)-4-(3,3-difluoroazetidin-1-yl)cyclohexyl)-1-(4,4-difluorocyclohexyl)-3-methyl-1H-thieno [2,3-c]pyrazole-5-carboxamide]
